The text below walks through data of patent US10626115B2, “Fused pyrimidinone and triazinone derivatives containing bridged nitrogen, their process of preparation and their therapeutic uses as antifungal and/or antiparasitic agents” (UNIVERSITE DE NANTES, priority 2015, dated 2020).

Data set [1] concerns promastigote stage of a Leishmania mexicana strain. Put plainly: Anti-Trypanosomatidae activity, promastigote stage, spectrofluorimetric microdilution. The data set is classed as cell-based. Conditions: for IC50: Leishmania mexicana, promastigote stage, 50% of control growth, read-out: L. mexicana (IC50 μM). The procedure: Compounds were evaluated on the promastigote stage of a Leishmania mexicana strain using a spectrofluorimetric microdilution method. Inhibitory concentration 50 (IC50) was the concentration that inhibited 50% of the control growth.
In general terms: Dilution methods test growth across graded concentrations, often in twofold steps.

Usually melting point stands for the temperature of the solid-liquid transition. The term IC50 denotes the concentration that gives 50% inhibition.

Some results are limits rather than exact numbers.

The compound `C[C@@H](n1ncc2cc(Br)cn2c1=O)[C@](O)(Cn1cncn1)c1ccc(F)cc1F` [Compound 45, 7-Bromo-3-[(1R,2R)-2-(2,4-difluorophenyl)-2-hydroxy-1-methyl-3-(1,2,4-triazol-1-yl)propyl]-3H-pyrrolo[1,2-d][1,2,4]triazin-4-one] displayed a melting point of 142 to 143 °C.

With `N=C(N)c1ccc(OCCCCCOc2ccc(C(=N)N)cc2)cc1` [Pentamidine, reference compound], the IC50 in data set [1] amounted to 0.34 ± 0.03 µM.

In turn, `C[C@@H](n1ccc2nc(-c3nccs3)cn2c1=O)[C@](O)(Cn1cncn1)c1ccc(F)cc1F` [Compound 36, 6-[(1R,2R)-2-(2,4-Difluorophenyl)-2-hydroxy-1-methyl-3-(1H-1,2,4-triazol-1-yl)propyl]-2-(thiazol-2-yl)imidazo[1,2-c]pyrimidin-5-one] returned a melting point of 175 to 176 °C.

As to `C[C@@H](n1ccc2nc(-c3ccc(F)cc3)cn2c1=O)[C@](O)(Cn1cncn1)c1ccc(F)cc1F` [Compound 30, 6-[(1R,2R)-2-(2,4-Difluorophenyl)-2-hydroxy-1-methyl-3-(1H-1,2,4-triazol-1-yl)propyl]-2-(4-fluorophenyl)imidazo[1,2-c]pyrimidin-5-one], the melting point lay within 114 to 115 °C. In addition, in data set [1], the “effectiveness against the promastigote stage of L. Mexicana, in words” value was “effective” and the half-inhibitory concentration (IC50) amounted to 8.1 ± 1.6 µM.

`CCOC(=O)c1cn2c(=O)n([C@H](C)[C@](O)(Cn3cncn3)c3ccc(F)cc3F)ccc2n1` [Compound 37, Ethyl-6-[(1R,2R)-2-(2,4-difluorophenyl)-2-hydroxy-1-methyl-3-(1H-1,2,4-triazol-1-yl)propyl]-5-oxo-imidazo[1,2-c]pyrimidine-2-carboxylate] came in with a melting point of 148 to 149 °C.

Compound `C[C@@H](n1ccc2nc(-c3ccc(C(F)(F)F)cc3)cn2c1=O)[C@](O)(Cn1cncn1)c1ccc(F)cc1F` [Compound 33, 6-[(1R,2R)-2-(2,4-Difluorophenyl)-2-hydroxy-1-methyl-3-(1H-1,2,4-triazol-1-yl)propyl]-2-[(4-trifluoromethyl)phenyl]imidazo[1,2-c]pyrimidin-5-one] displayed a melting point of 196 to 197 °C.

Compound `Cc1cn2c(=O)n([C@H](C)[C@](O)(Cn3cncn3)c3ccc(F)cc3F)ccc2n1` [Compound 28, 6-[(1R,2R)-2-(2,4-Difluorophenyl)-2-hydroxy-1-methyl-3-(1H-1,2,4-triazol-1-yl)propyl]-2-methylimidazo[1,2-c]pyrimidin-5-one] registered a melting point of 103 to 104 °C. The IC50 in data set [1] is > 100 µM.

Compound `C[C@@H](n1ccc2nc(-c3ccc(Br)cc3)cn2c1=O)[C@](O)(Cn1cncn1)c1ccc(F)cc1F` [Compound 32, 6-[(1R,2R)-2-(2,4-Difluorophenyl)-2-hydroxy-1-methyl-3-(1H-1,2,4-triazol-1-yl)propyl]-2-(4-bromophenyl)imidazo[1,2-c]pyrimidin-5-one] had a melting point of 161 to 162 °C.

`C[C@@H](n1ccc2nc(C#N)cn2c1=O)[C@](O)(Cn1cncn1)c1ccc(F)cc1F` [Compound 38, 6-[(1R,2R)-2-(2,4-Difluorophenyl)-2-hydroxy-1-methyl-3-(1H-1,2,4-triazol-1-yl)propyl]-5-oxo-imidazo[1,2-c]pyrimidine-2-carbonitrile] had a melting point of 132 to 133 °C.
